According to patent US20230055705A1, “SUBSTITUTED THIOPHENE CARBOXAMIDES AND DERIVATIVES THEREOF” (Bayer Aktiengesellschaft, priority 2019, published 2023):
Where two headings read alike, the source gives them in different places.

How the values were obtained:
[1] = tested on: salicylate responsive promoter sequence of the PR1 (pathogenesis-related protein I) gene (AT2G14610); experiment: Induction of defense gene expression in Arabidopsis thaliana (PR1 promoter-GFP reporter plants); type: in vivo; settings: Arabidopsis thaliana, 72 h, 3rd day after spraying, mock treated leaves set as 1.00, read-out: relative fluorescence value; for fold induction at 75 ppm: 75 ppm of compound
Method: Arabidopsis thaliana reporter plants containing the coding sequence of a green fluorescent protein (GFP) linked to the salicylate responsive promoter sequence of the PR1 (pathogenesis-related protein I) gene (AT2G14610) were grown for five days and then sprayed with compounds. On the 3rd day after spraying, plant fluorescence was assessed with a MacroFluo instrument from Leica Microsystems (Wetzlar, Germany). Fluorescences were quantified with the Meta-Morph Microscopy Automation & Image Analysis Software (Molecular Devices, Sunnyvale, Calif., United States). Background fluorescence in mock treated leaves was set as 1.00.

[2] = tested on: Xanthomonas campestris pv. campestris; experiment: Xanthomonas campestris pv. campestris in vitro cell test; type: cell-based; settings: read-out: efficacy (inhibition of bacteria growth)
Method: • Solvent: DMSO • Culture medium: LB broth medium (Luria Broth Miller) Sigma • Inoculum: bacteria suspension
Compounds were solubilized in DMSO and the solution used to prepare the required range of concentrations. The final concentration of DMSO used in the assay was ≤1%.
(§1) Inoculum was prepared from a pre-culture of bacteria grown in liquid medium and diluted to the desired optical density (OD).
(§2) Compounds were evaluated for their ability to inhibit bacteria growth in liquid culture assay. The compounds were added in the desired concentrations to culture medium containing the bacteria suspension. After 24 h of incubation, the efficacy of compounds was determined by spectrometric measurement of bacteria growth. Inhibition was determined by comparing the absorbance values in wells containing the compounds with the absorbance in control wells without active ingredients.

[3] = tested on: Pseudomonas syringae pv. tomato; experiment: Pseudomonas syringae pv. tomato in vitro cell test; type: cell-based; settings: 20 ppm of active ingredient, 24 h incubation, read-out: efficacy (inhibition of bacteria growth)
Method: Culture medium: LB broth medium (Luria Broth Miller) Sigma
Inoculum: bacteria suspension
Compounds were solubilized in DMSO and the solution used to prepare the required range of concentrations. The final concentration of DMSO used in the assay was 1%.
as §1, §2

[4] = tested on: Colletotrichum lindemuthianum; experiment: In vivo preventive test on Colletotrichum lindemuthianum (Antrachnose on bean); settings: 144 h, inoculation 72 h after spraying, evaluated 6 days after inoculation, read-out: efficacy; for pest or weed control at 31 ppm: 31 ppm of active ingredient; for pest or weed control at 500 ppm: 500 ppm of active ingredient
Method: (§3) The tested active ingredients were prepared by homogenization in a mixture of acetone/Dimethyl sulfoxide/Tween®, and then diluted with water to obtain the desired active material concentration. The young plants of bean were treated by spraying the active ingredient prepared as described above. Control plants were treated only with an aqueous solution of acetone/Dimethyl sulfoxide/Tween®.
(§4) After 72 hours, the plants were contaminated by spraying the leaves with an aqueous suspension of Colletotrichum lindemuthianum spores. The contaminated bean plants were incubated for 24 hours at 20° C. and at 100% relative humidity and then for 5 days at 20° C. and at 90% relative humidity. The test was evaluated 6 days after the inoculation. 0% means an efficacy which corresponds to that of the control plants while an efficacy of 100% means that no disease was observed.
Compound CMP1 was tested in an in vivo preventive test on Colletotrichum lindemuthianum (Antrachnose on bean) in the same conditions as described in Example F.

[5] = tested on: Peronospora parasitica; experiment: In vivo preventive test on Peronospora parasitica (Crucifer downy mildew); settings: Hyaloperonospora parasitica, in Brassica oleracea, 120 h, cabbage, evaluated 5 days after inoculation, read-out: efficacy; for pest or weed control at 31 ppm: 31 ppm of active ingredient; for pest or weed control at 125 ppm: 125 ppm of active ingredient; for pest or weed control at 500 ppm: 500 ppm of active ingredient
Method: as §3, with “cabbage” for “bean”
After 72 hours, the plants were contaminated by spraying the leaves with an aqueous suspension of Peronospora parasitica spores. The contaminated cabbage plants were incubated for 5 days at 20° C. and at 100% relative humidity.
The test was evaluated 5 days after the inoculation. 0% means an efficacy which corresponds to that of the control plants while an efficacy of 100% means that no disease was observed.
Compounds CMP2 and CMP3 were tested in an in vivo preventive test on Peronospora parasitica (Crucifer downy mildew) in the same conditions as described in Example G.

[6] = tested on: Xanthomonas campestris pv. campestris; experiment: In vivo preventive test on Xanthomonas campestris pv. campestris (black rot on cabbage); settings: for pest or weed control at 125 ppm: 125 ppm of active ingredient
Method: The tested active ingredients were prepared by homogenization in a mixture of acetone/Dimethyl sulfoxide/Tween®, and then diluted with water to obtain the desired active material concentration.
The young plants of cabbage were treated by spraying the active ingredient prepared as described above. Control plants were treated only with an aqueous solution of acetone/Dimethyl sulfoxide/Tween®.
After 72 hours, the plants were contaminated by spraying the leaves with an aqueous bacteria suspension of Xanthomonas campestris pv. campestris. The contaminated cabbage plants were incubated for 8 or 10 days at 27° C. at 95% relative humidity.
The test was evaluated 8 or 10 days after the inoculation. 0% means an efficacy which corresponds to that of the control plants while an efficacy of 100% means that no disease was observed. […]
Compounds CMP1, CMP2, CMP3 and CMP4 were tested in an in vivo preventive test on Xanthomonas campestris pv. campestris (black rot on cabbage) in the same conditions as described in Example H.

[7] = tested on: Pseudomonas syringae pv. tomato; experiment: In vivo preventive test on Pseudomonas syringae pv. tomato (bacterial speck on tomato); settings: evaluated 5 or 6 days after inoculation, read-out: efficacy; for pest or weed control at 500 ppm: 500 ppm of active ingredient; for pest or weed control at 31 ppm: 31 ppm of active ingredient
Method: as §3, with “tomato” for “bean”
After 72 hours, the plants were contaminated by spraying the leaves with an aqueous bacteria suspension of Pseudomonas syringae pv. tomato. The contaminated tomato plants were incubated for 4 days in saturated atmosphere at 22° C. day/20° C. night—70% HR and then for 1 or 2 days at 22° C. day/20° C. night at 70-80% relative humidity.
The test was evaluated 5 or 6 days after the inoculation. 0% means an efficacy which corresponds to that of the control plants while an efficacy of 100% means that no disease was observed.
Compounds CMP1 and CMP4 were tested in an in vivo preventive test on Pseudomonas syringae pv. tomato (bacterial speck on tomato) in the same conditions as described in Example J.

[8] = LogP by HPLC on reversed phase columns (EEC directive 79/831 Annex V.A8); type: physicochemical; settings: reversed phase HPLC columns
Method: In the above tables, measurement of LogP values was performed according to EEC directive 79/831 Annex V.A8 by HPLC (High Performance Liquid Chromatography) on reversed phase columns with the following methods: • ^[a]
Calibration was done with straight-chain alkan2-ones (with 3 to 16 carbon atoms) with known LogP values (measurement of LogP values using retention times with linear interpolation between successive alkanones). Lambda-max-values were determined using UV-spectra from 200 nm to 400 nm and the peak values of the chromatographic signals.

[9] = tested on: Uromyces appendiculatus; experiment: In vivo preventive test on Uromyces appendiculatus (bean rust); settings: 240 h, evaluated 10 days after inoculation, read-out: efficacy; for pest or weed control at 125 ppm: 125 ppm of active ingredient; for pest or weed control at 500 ppm: 500 ppm of active ingredient
Method: as §3
as §4, with “Uromyces appendiculatus” for “Colletotrichum lindemuthianum”, “9” for “5”, “70-80%” for “90%”, “10” for “6”
Compounds CMP5 and CMP6 were tested in an in vivo preventive test on Uromyces appendiculatus (bean rust) in the same conditions as described in Example I.

[10] = 20 ppm of active ingredient, 24 h incubation
[11] = 31 ppm of active ingredient, evaluated 8 or 10 days after inoculation, read-out: efficacy
[12] = method [a]: LC-UV, in an acidic range, with 0.1% formic acid in water and acetonitrile as eluent (linear gradient from 10% to 95% acetonitrile)
[13] = evaluated 8 or 10 days after inoculation, read-out: efficacy
[14] = method [a]: LC-UV, acidic range, 0.1% formic acid in water and acetonitrile as eluent (linear gradient 10% to 95% acetonitrile)

Row | SMILES | chromatographic logP ([8]; given in the preparation examples, method not marked) | chromatographic logP [8, 12] | fold induction at 75 ppm [1] | fold induction at 300 ppm [1] | inhibition at 20 ppm [2, 10] | inhibition at 20 ppm [3] | pest or weed control at 31 ppm [4] | pest or weed control at 500 ppm [4] | pest or weed control at 31 ppm [5] | pest or weed control at 125 ppm [5] | pest or weed control at 500 ppm [5] | pest or weed control at 31 ppm [6, 11] | pest or weed control at 500 ppm [7] | pest or weed control at 125 ppm [6, 13] | pest or weed control at 125 ppm [9] | pest or weed control at 500 ppm [9] | pest or weed control at 31 ppm [7] | chromatographic logP [8, 14] | inhibition at 20 ppm ([2]; 24 h) | pest or weed control at 31 ppm ([6]; read-out: efficacy, 31 ppm of active ingredient, evaluated 8 or 10 days after inoculation)
1 | COC(=O)C(C)N(OC)C(=O)c1sc(Cl)c(Cl)c1Cl (centres unmarked) [I.109] | – | 3.72 | > 2 | > 2 | – | – | – | 90 to 100% | 90 to 100% | 90 to 100% | 90 to 100% | – | 80 to 89% | 70 to 79% | 90 to 100% | 90 to 100% | – | – | – | –
2 | CCOC(=O)C(COC)NC(=O)c1sc(Cl)c(Cl)c1Cl (centres unmarked) [I.059] | – | 3.83 | > 2 | > 2 | ≤ 30% | ≤ 30% | 70 to 79% | 90 to 100% | 80 to 89% | 70 to 79% | 90 to 100% | 90 to 100% | 90 to 100% | 70% | 90 to 100% | 90 to 100% | – | – | – | –
3 | COC(=O)C(NC(=O)c1sc(Cl)c(Cl)c1Cl)c1cccs1 (centres unmarked) [I.124] | – | – | > 2 | > 2 | ≤ 30% | ≤ 30% | 90 to 100% | – | 90 to 100% | 90 to 100% | – | – | – | – | 90 to 100% | – | 80 to 89% | 4.22 | – | –
4 | CNC(=S)SC[C@H](NC(=O)c1sc(Cl)c(Cl)c1Cl)C(=O)OC [I.140] | – | – | > 2 | > 2 | – | ≤ 30% | – | – | 90 to 100% | 90 to 100% | – | – | – | – | 90 to 100% | – | 70 to 79% | 3.52 | ≤ 30% | 90 to 100%
5 | CCOC(=O)C(C)N(OC)C(=O)c1sc(Cl)c(Cl)c1Cl (centres unmarked) [I.108] | – | 4.15 | > 2 | > 2 | – | – | – | 90 to 100% | 90 to 100% | 90 to 100% | 90 to 100% | 90 to 100% | 80 to 89% | – | 90 to 100% | 90 to 100% | – | – | – | –

The next lines start with results.

Row | chromatographic logP ([8]; given in the preparation examples, method not marked) | chromatographic logP [8, 12] | SMILES | fold induction at 75 ppm [1] | fold induction at 300 ppm [1] | inhibition at 20 ppm [2, 10] | inhibition at 20 ppm [3] | pest or weed control at 31 ppm [4] | pest or weed control at 500 ppm [4] | pest or weed control at 31 ppm [5] | pest or weed control at 125 ppm [5] | pest or weed control at 500 ppm [5] | pest or weed control at 31 ppm [6, 11] | pest or weed control at 500 ppm [7] | pest or weed control at 125 ppm [6, 13] | pest or weed control at 125 ppm [9] | pest or weed control at 500 ppm [9] | pest or weed control at 31 ppm [7] | chromatographic logP [8, 14] | inhibition at 20 ppm ([2]; 24 h) | pest or weed control at 31 ppm ([6]; read-out: efficacy, 31 ppm of active ingredient, evaluated 8 or 10 days after inoculation)
6 | 2.59 | 2.64 | N#CCNC(=O)c1sc(Cl)c(Cl)c1Cl [I.025, 3,4,5-trichloro-N-(cyanomethyl)thiophene-2-carboxamide] | > 2 | > 2 | ≤ 30% | ≤ 30% | 90 to 100% | 90 to 100% | 80 to 89% | 80 to 89% | 90 to 100% | 70 to 79% | 80 to 89% | – | – | – | – | – | – | –
7 | – | 4.44 | CCOC(=O)C(Cc1c[nH]c2ccccc12)NC(=O)c1sc(Cl)c(Cl)c1Cl (centres unmarked) [I.013] | – | > 2 | ≤ 30% | ≤ 30% | – | 80 to 89% | 80 to 89% | – | 90 to 100% | – | – | 80 to 89% | 70 to 79% | 90 to 100% | – | – | – | –
